Measurements as given in US20250188059A1, “NOVEL COMPOUND AND USE THEREOF FOR INHIBITING CHECKPOINT KINASE 2” (ARUM THERAPEUTICS INC, priority 2022, published 2025).
pIC50: −log10 of the molar value. Read-outs that look alike come from different tables or passages of the source.

What was measured:
[1] = target: Chk2 kinase (Homo sapiens (Human), UniProt O96017); assay: Chk2 kinase inhibitory activity (LanthaScreen TR-FRET); assay type: biochemical; conditions: graded
In short: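 Recombinant Chk1 or Chk2 was mixed with substrate and compound, and the reaction was started with ATP and run 1 h at room temperature. Phosphorylation was detected with a Tb-labelled anti-CREB pSer133 antibody for 30 min, read as the TR-FRET Em520/Em490 ratio. IC50 was fitted from duplicate-well means.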

[2] = system: human breast cancer cell line MCF-7; assay: Cancer cell growth inhibition test (CellTiter-Glo); assay type: cell-based; conditions: MCF-7, 72 hours
In short: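 MCF-7 cells (about 3000/well) pre-incubated 24 hours at 37° C, then exposed 72 hours to serially diluted compound, alone or combined with cisplatin or doxorubicin. Viability read by CellTiter-Glo luminescence as % of DMSO-only wells; values are means of three wells.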

[3] = target: Chk1 kinase (Homo sapiens (Human), UniProt O14757); assay: Chk1 kinase inhibitory activity (LanthaScreen TR-FRET); assay type: biochemical; conditions: graded
Chain of Chk1 kinase (O14757 whole entry): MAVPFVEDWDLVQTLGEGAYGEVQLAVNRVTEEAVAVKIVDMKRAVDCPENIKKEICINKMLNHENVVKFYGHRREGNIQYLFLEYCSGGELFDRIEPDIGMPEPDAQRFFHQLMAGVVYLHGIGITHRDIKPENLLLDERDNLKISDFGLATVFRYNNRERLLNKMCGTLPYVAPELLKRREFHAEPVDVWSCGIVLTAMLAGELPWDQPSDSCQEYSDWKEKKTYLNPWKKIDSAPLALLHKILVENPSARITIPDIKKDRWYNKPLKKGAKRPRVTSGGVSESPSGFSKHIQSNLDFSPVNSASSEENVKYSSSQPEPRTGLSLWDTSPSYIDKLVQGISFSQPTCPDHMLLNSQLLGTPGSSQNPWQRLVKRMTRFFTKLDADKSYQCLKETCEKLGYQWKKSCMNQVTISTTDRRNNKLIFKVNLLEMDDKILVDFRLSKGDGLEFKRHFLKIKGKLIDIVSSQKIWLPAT
Procedure: The compounds of Examples 1 to 66 were diluted at various concentrations and transferred to a 384-well plate by 5 μl, and 10 μl of a mixed solution (2×) of Chk1 kinase (Thermo, P3040) or Chk2 kinase (Thermo, PV3367) and a substrate (Thermo, PV3508) was added to wells treated with the compounds. 5 μl of an ATP solution at a 4× concentration was added to the test well and reacted at room temperature for 1 hour. 20 μl of LanthaScreen Terbium-CREB p-Ser 133 antibody (Thermo, PV3542) was added to the reaction well and incubated at room temperature for 30 minutes. Conversion data was measured by an EnVision 2014 multi label reader (PerkinElmer). The activity for each concentration was determined by the ratio (FRET ratio=FR) of the value obtained by dividing the value at 520 nm by the value at 490 nm among the emission wavelength values for each wavelength (Em520/Em490). The results obtained for each concentration of the compounds were the average values obtained in two wells, and the IC50 values of the compounds were calculated using PRIZM software for analysis of the results. IC50 in Table 7 was graded as follows.

[4] = Homo sapiens, MCF7, 72 h, graded, read-out: Celltiter glo analysis (IC50)

Chain of Chk2 kinase (O96017 whole entry): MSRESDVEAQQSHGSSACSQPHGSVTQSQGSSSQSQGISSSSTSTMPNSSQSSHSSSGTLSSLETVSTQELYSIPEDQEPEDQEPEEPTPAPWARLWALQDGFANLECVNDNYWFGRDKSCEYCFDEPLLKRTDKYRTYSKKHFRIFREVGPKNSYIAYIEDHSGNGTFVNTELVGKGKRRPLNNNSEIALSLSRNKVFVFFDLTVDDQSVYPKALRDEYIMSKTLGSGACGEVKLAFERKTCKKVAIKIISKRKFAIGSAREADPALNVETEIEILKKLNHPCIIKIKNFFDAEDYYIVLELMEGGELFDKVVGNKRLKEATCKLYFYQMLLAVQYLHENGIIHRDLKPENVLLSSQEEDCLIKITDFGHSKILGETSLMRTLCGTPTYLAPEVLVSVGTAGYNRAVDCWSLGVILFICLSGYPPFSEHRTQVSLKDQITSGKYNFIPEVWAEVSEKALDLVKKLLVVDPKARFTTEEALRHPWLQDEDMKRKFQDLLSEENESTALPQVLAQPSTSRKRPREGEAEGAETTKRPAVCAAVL

Structure (SMILES)	pIC50 [1]	pIC50 [2, 4]	pIC50 [3]	pIC50 ([2]; graded, read-out: Celltiter glo analysis (IC50))	pIC50 ([2]; Homo sapiens, MCF7, 72 h, alone, read-out: Administered alone (IC50))	pIC50 ([2]; combination with cisplatin, read-out: Administered in combination with cisplatin (IC50))	pIC50 ([2]; combination with doxorubicin, read-out: Administered in combination with doxorubicin (IC50))
CC1(C)Cc2c(-c3ccc(F)c(-c4cnc(N)c(C(=O)N[C@H]5CCCNC5)n4)c3)cnn2C1 [Example 43, (S)-3-amino-6-(5-(5,5-dimethyl-5,6-dihydro-4H-pyrrolo[1,2-b]pyrazol-3-yl)-2-fluorophenyl)-N-(piperidin-3-yl)pyrazine-2-carboxamide]	≥ 8.00	4.00 to 5.00	6.00 to 7.00	–	–	–	–
Cn1cc(-c2ccc(F)c(-c3cnc(N)c(C(=O)N[C@@H]4CNC[C@@H](F)C4)n3)c2)cn1 [Example 19, 3-amino-6-(2-fluoro-5-(1-methyl-1H-pyrazol-4-yl)phenyl)-N-((3S,5S)-5-fluoropiperidin-3-yl) pyrazine-2-carboxamide]	7.00 to 8.00	4.00 to 5.00	6.00 to 7.00	–	–	–	–
Nc1ncc(-c2cc(-c3cnn(C4CC4)c3)ccc2F)nc1C(=O)N[C@H]1CCCNC1 [Example 31, (S)-3-amino-6-(5-(1-cyclopropyl-1H-pyrazol-4-yl)-2-fluorophenyl)-N-(piperidin-3-yl)pyrazine-2-carboxamide]	7.00 to 8.00	4.00 to 5.00	6.00 to 7.00	–	–	–	–
CC1(C)Cc2c(-c3cccc(-c4cnc(N)c(C(=O)N[C@H]5CCC6(CC6)NC5)n4)c3)cnn2C1 (stereo in doubt) [Example 65, 3-amino-6-(3-(5,5-dimethyl-5,6-dihydro-4H-pyrrolo[1,2-b]pyrazol-3-yl)phenyl)-N-(4-azaspiro[2.5]octan-6-yl)pyrazine-2-carboxamide]	7.00 to 8.00	–	7.00 to 8.00	< 4.00	–	–	–
CC1(C)Cc2c(-c3cccc(-c4cnc(N)c(C(=O)N[C@@H]5CNC[C@@H](F)C5)n4)c3)cnn2C1 [Example 45, 3-amino-6-(3-(5,5-dimethyl-5,6-dihydro-4H-pyrrolo[1,2-b]pyrazol-3-yl)phenyl)-N-((3S,5S)-5-fluoropiperidin-3-yl)pyrazine-2-carboxamide]	≥ 8.00	4.00 to 5.00	6.00 to 7.00	–	–	–	–
CC(C)(O)Cn1cc(-c2cc(-c3cnc(N)c(C(=O)N[C@@H]4CNCC(F)(F)C4)n3)c(F)cn2)cn1 [Example 32, (S)-3-amino-N-(5,5-difluoropiperidin-3-yl)-6-(5-fluoro-2-(1-(2-hydroxy-2-methylpropyl)-1H-pyrazol-4-yl)pyridin-4-yl)pyrazine-2-carboxamide]	< 6.00	4.00 to 5.00	< 6.00	–	4.48	5.34	6.04

The next lines start with the values.

pIC50 [1]	pIC50 [2, 4]	pIC50 [3]	pIC50 ([2]; graded, read-out: Celltiter glo analysis (IC50))	pIC50 ([2]; Homo sapiens, MCF7, 72 h, alone, read-out: Administered alone (IC50))	pIC50 ([2]; combination with cisplatin, read-out: Administered in combination with cisplatin (IC50))	pIC50 ([2]; combination with doxorubicin, read-out: Administered in combination with doxorubicin (IC50))	Structure (SMILES)
7.00 to 8.00	< 4.00	7.00 to 8.00	–	–	–	–	N#CCn1cc(-c2cccc(-c3cnc(N)c(C(=O)N[C@H]4CCCNC4)n3)c2)cn1 [Example 27, (S)-3-amino-6-(3-(1-(cyanomethyl)-1H-pyrazol-4-yl)phenyl)-N-(piperidin-3-yl)pyrazine-2-carboxamide]
≥ 8.00	4.00 to 5.00	7.00 to 8.00	–	–	–	–	CC1(C)Cc2c(-c3cccc(-c4cnc(N)c(C(=O)N[C@H]5CCCNC5)n4)c3)cnn2C1 [Example 42, (S)-3-amino-6-(3-(5,5-dimethyl-5,6-dihydro-4H-pyrrolo[1,2-b]pyrazol-3-yl)phenyl)-N-(piperidin-3-yl) pyrazine-2-carboxamide]
≥ 8.00	< 4.00	< 6.00	–	–	–	–	CC(C)(O)Cn1cc(-c2cccc(-c3cnc(N)c(C(=O)N[C@@H]4CNCC[C@H]4O)n3)c2)cn1 [Example 28, 3-amino-6-(3-(1-(2-hydroxy-2-methylpropyl)-1H-pyrazol-4-yl)phenyl)-N-((3R,4R)-4-hydroxypiperidin-3-yl)pyrazine-2-carboxamide]
6.00 to 7.00	4.00 to 5.00	< 6.00	–	–	–	–	CC(C)(O)Cn1cc(-c2cc(-c3cnc(N)c(C(=O)N[C@@H]4CNCC(F)(F)C4)n3)ccn2)cn1 [Example 33, (S)-3-amino-N-(5,5-difluoropiperidin-3-yl)-6-(2-(1-(2-hydroxy-2-methylpropyl)-1H-pyrazol-4-yl)pyridin-4-yl)pyrazine-2-carboxamide]
